{"source": "patent US11649246B2", "about": "“Salts of 4-amino-N-(l-((3-chloro-2-fluorophenyl)amino)-6-methylisoquinolin-5-yl)thieno[3,2-D]pyrimidine-7-carboxamide, and crystalline forms thereof” (Hanmi Pharm. Co., Ltd., priority 2017, dated 2023)", "key": {"[1]": {"experiment": "Solubility of bis-hydrochloride Form I by HPLC test and observation test", "format": "physicochemical", "procedure": "Solubility was measured by HPLC according to KP, USP and EP general chapters. […] The results of solubility were same between HPLC test and observation test."}, "[2]": {"experiment": "Stress stability test at 60° C.", "format": "physicochemical", "procedure": "In order to compare physicochemical stability among the crystalline form prepared in Example 3 (crystalline Formula (I) bis-hydrochloride Form I) and 16 (Formula (I) crystalline free base), and the amorphous form prepared in Comparative Example 1, a stress stability test was conducted by storing samples at 60° C., for different periods of time up to 4 weeks."}}, "note": "Where two headings read alike, the source gives them in different places."}
{"smiles": "Cc1ccc2c(Nc3cccc(Cl)c3F)nccc2c1NC(=O)c1csc2c(N)ncnc12", "note": "[Example 3, 4-amino-N-(1-((3-chloro-2-fluorophenyl)amino)-6-methylisoquinolin-5-yl)thieno[3,2-d]pyrimidine-7-carboxamide]", "values": [{"measurement": "solubility", "setting": "[1]; ACN", "result": 113431, "unit": "mL/g"}, {"measurement": "Solubility Observation", "setting": "[1]; ACN, listed as Formula (I) bis-hydrochloride Form I", "result": "Practically insoluble"}, {"measurement": "solubility", "setting": "[1]; DMSO", "result": 8, "unit": "mL/g"}, {"measurement": "Solubility Observation", "setting": "[1]; DMSO, listed as Formula (I) bis-hydrochloride Form I", "result": "Freely soluble"}, {"measurement": "solubility", "setting": "[1]; Dichloromethane", "result": 366289, "unit": "mL/g"}, {"measurement": "Solubility Observation", "setting": "[1]; Dichloromethane, listed as Formula (I) bis-hydrochloride Form I", "result": "Practically insoluble"}, {"measurement": "solubility", "setting": "[1]; Ethanol", "result": 1316, "unit": "mL/g"}, {"measurement": "Solubility Observation", "setting": "[1]; Ethanol, listed as Formula (I) bis-hydrochloride Form I", "result": "Very slightly soluble"}, {"measurement": "solubility", "setting": "[1]; Ethyl acetate", "result": 356535, "unit": "mL/g"}, {"measurement": "Solubility Observation", "setting": "[1]; Ethyl acetate, listed as Formula (I) bis-hydrochloride Form I", "result": "Practically insoluble"}, {"measurement": "solubility", "setting": "[1]; Ethyl ether", "result": 522061, "unit": "mL/g"}, {"measurement": "Solubility Observation", "setting": "[1]; Ethyl ether, listed as Formula (I) bis-hydrochloride Form I", "result": "Practically insoluble"}, {"measurement": "solubility", "setting": "[1]; Methanol", "result": 58, "unit": "mL/g"}, {"measurement": "Solubility Observation", "setting": "[1]; Methanol, listed as Formula (I) bis-hydrochloride Form I", "result": "Sparingly soluble"}, {"measurement": "solubility", "setting": "[1]; Water", "result": 654940, "unit": "mL/g"}, {"measurement": "Solubility Observation", "setting": "[1]; Water, listed as Formula (I) bis-hydrochloride Form I", "result": "Practically insoluble"}, {"measurement": "solubility", "setting": "[1]; aqueous buffer, thermodynamic from solid, pH 3.0 buffer, read-out: Solubility", "result": 20, "unit": "µg/mL"}, {"measurement": "solubility", "setting": "[1]; aqueous buffer, thermodynamic from solid, pH 4.0 buffer, read-out: Solubility", "result": 3, "unit": "µg/mL"}, {"measurement": "solubility", "setting": "[1]; aqueous buffer, thermodynamic from solid, pH 5.0 buffer, read-out: Solubility", "result": 0.09, "unit": "µg/mL"}, {"measurement": "solubility", "setting": "[1]; aqueous buffer, thermodynamic from solid, pH 6.0 buffer, read-out: Solubility", "result": 0.1, "unit": "µg/mL"}, {"measurement": "solubility", "setting": "[1]; aqueous buffer, thermodynamic from solid, pH 6.8 buffer, read-out: Solubility", "result": 0.09, "unit": "µg/mL"}, {"measurement": "solubility", "setting": "[1]; aqueous buffer, thermodynamic from solid, pH 7.0 buffer, read-out: Solubility", "result": 0.06, "unit": "µg/mL"}, {"measurement": "solubility", "setting": "[1]; aqueous buffer, thermodynamic from solid, pH 8.0 buffer, read-out: Solubility", "result": 0.05, "unit": "µg/mL"}, {"measurement": "solubility", "setting": "[1]; n-Hexane", "result": 22316479, "unit": "mL/g"}, {"measurement": "Solubility Observation", "setting": "[1]; n-Hexane, listed as Formula (I) bis-hydrochloride Form I", "result": "Practically insoluble"}, {"measurement": "solubility", "setting": "[1]; organic solvent or mixture, thermodynamic from solid, ACN, read-out: Solubility", "result": 8, "unit": "µg/mL"}, {"measurement": "solubility", "setting": "[1]; organic solvent or mixture, thermodynamic from solid, DMSO, read-out: Solubility", "result": 131000, "unit": "µg/mL"}, {"measurement": "solubility", "setting": "[1]; organic solvent or mixture, thermodynamic from solid, Dichloromethane, read-out: Solubility", "result": 2.7, "unit": "µg/mL"}, {"measurement": "solubility", "setting": "[1]; organic solvent or mixture, thermodynamic from solid, Ethanol, read-out: Solubility", "result": 800, "unit": "µg/mL"}, {"measurement": "solubility", "setting": "[1]; organic solvent or mixture, thermodynamic from solid, Ethyl acetate, read-out: Solubility", "result": 2.8, "unit": "µg/mL"}, {"measurement": "solubility", "setting": "[1]; organic solvent or mixture, thermodynamic from solid, Ethyl ether, read-out: Solubility", "result": 1.9, "unit": "µg/mL"}, {"measurement": "solubility", "setting": "[1]; organic solvent or mixture, thermodynamic from solid, Methanol, read-out: Solubility", "result": 17400, "unit": "µg/mL"}, {"measurement": "solubility", "setting": "[1]; organic solvent or mixture, thermodynamic from solid, n-Hexane, read-out: Solubility", "result": 0.04, "unit": "µg/mL"}, {"measurement": "solubility", "setting": "[1]; pH 1.2 buffer", "result": 3811, "unit": "mL/g"}, {"measurement": "Solubility Observation", "setting": "[1]; pH 1.2 buffer, listed as Formula (I) bis-hydrochloride Form I", "result": "Very slightly soluble"}, {"measurement": "solubility", "setting": "[1]; pH 2.0 buffer", "result": 1688, "unit": "mL/g"}, {"measurement": "Solubility Observation", "setting": "[1]; pH 2.0 buffer, listed as Formula (I) bis-hydrochloride Form I", "result": "Very slightly soluble"}, {"measurement": "Solubility Observation", "setting": "[1]; pH 3.0 buffer", "result": "Practically insoluble"}, {"measurement": "solubility", "setting": "[1]; pH 3.0 buffer", "result": 42855, "unit": "mL/g"}, {"measurement": "Solubility Observation", "setting": "[1]; pH 4.0 buffer", "result": "Practically insoluble"}, {"measurement": "solubility", "setting": "[1]; pH 4.0 buffer", "result": 331069, "unit": "mL/g"}, {"measurement": "Solubility Observation", "setting": "[1]; pH 5.0 buffer", "result": "Practically insoluble"}, {"measurement": "solubility", "setting": "[1]; pH 5.0 buffer", "result": 10759731, "unit": "mL/g"}, {"measurement": "Solubility Observation", "setting": "[1]; pH 6.0 buffer", "result": "Practically insoluble"}, {"measurement": "solubility", "setting": "[1]; pH 6.0 buffer", "result": 9770999, "unit": "mL/g"}, {"measurement": "Solubility Observation", "setting": "[1]; pH 6.8 buffer", "result": "Practically insoluble"}, {"measurement": "solubility", "setting": "[1]; pH 6.8 buffer", "result": 11528283, "unit": "mL/g"}, {"measurement": "Solubility Observation", "setting": "[1]; pH 7.0 buffer", "result": "Practically insoluble"}, {"measurement": "solubility", "setting": "[1]; pH 7.0 buffer", "result": 16139597, "unit": "mL/g"}, {"measurement": "Solubility Observation", "setting": "[1]; pH 8.0 buffer", "result": "Practically insoluble"}, {"measurement": "solubility", "setting": "[1]; pH 8.0 buffer", "result": 21884199, "unit": "mL/g"}, {"measurement": "solubility", "setting": "[1]; simulated gastric fluid, thermodynamic from solid, pH 1.2 buffer, read-out: Solubility", "result": 300, "unit": "µg/mL"}, {"measurement": "solubility", "setting": "[1]; simulated gastric fluid, thermodynamic from solid, pH 2.0 buffer, read-out: Solubility", "result": 600, "unit": "µg/mL"}, {"measurement": "solubility", "setting": "[1]; thermodynamic from solid, Water, read-out: Solubility", "result": 1.5, "unit": "µg/mL"}, {"measurement": "Purity(%) (A % by HPLC)", "setting": "[2]; 2 weeks", "result": 99.8, "unit": "%"}, {"measurement": "Total impurities(%) (A % by HPLC)", "setting": "[2]; 2 weeks", "result": 0.16, "unit": "%"}, {"measurement": "Purity(%) (A % by HPLC)", "setting": "[2]; 4 weeks", "result": 99.8, "unit": "%"}, {"measurement": "Total impurities(%) (A % by HPLC)", "setting": "[2]; 4 weeks", "result": 0.23, "unit": "%"}, {"measurement": "Purity(%) (A % by HPLC)", "setting": "[2]; 1 day", "result": 99.8, "unit": "%"}, {"measurement": "Total impurities(%) (A % by HPLC)", "setting": "[2]; 1 day", "result": 0.17, "unit": "%"}, {"measurement": "Purity(%) (A % by HPLC)", "setting": "[2]; 3 days", "result": 99.8, "unit": "%"}, {"measurement": "Total impurities(%) (A % by HPLC)", "setting": "[2]; 3 days", "result": 0.15, "unit": "%"}, {"measurement": "Purity(%) (A % by HPLC)", "setting": "[2]; 7 days", "result": 99.8, "unit": "%"}, {"measurement": "Total impurities(%) (A % by HPLC)", "setting": "[2]; 7 days", "result": 0.19, "unit": "%"}, {"measurement": "Purity(%) (A % by HPLC)", "setting": "[2]; Initial", "result": 99.8, "unit": "%"}, {"measurement": "Total impurities(%) (A % by HPLC)", "setting": "[2]; Initial", "result": 0.17, "unit": "%"}, {"measurement": "physicochemical stability (summary in words)", "setting": "[2]; up to 4 weeks, listed as crystalline form (Form I) of the dihydrochloride", "result": "remarkably superior stability over the amorphous form"}]}
